14 molecules from ChEMBL document CHEMBL3991601, “The target landscape of clinical kinase drugs” (Science, 2017) can be followed below.

Test [1] addresses T1, General transcription and DNA repair factor IIH helicase subunit XPD (Homo sapiens, UniProt P18074).
T1 sequence (P18074 whole entry): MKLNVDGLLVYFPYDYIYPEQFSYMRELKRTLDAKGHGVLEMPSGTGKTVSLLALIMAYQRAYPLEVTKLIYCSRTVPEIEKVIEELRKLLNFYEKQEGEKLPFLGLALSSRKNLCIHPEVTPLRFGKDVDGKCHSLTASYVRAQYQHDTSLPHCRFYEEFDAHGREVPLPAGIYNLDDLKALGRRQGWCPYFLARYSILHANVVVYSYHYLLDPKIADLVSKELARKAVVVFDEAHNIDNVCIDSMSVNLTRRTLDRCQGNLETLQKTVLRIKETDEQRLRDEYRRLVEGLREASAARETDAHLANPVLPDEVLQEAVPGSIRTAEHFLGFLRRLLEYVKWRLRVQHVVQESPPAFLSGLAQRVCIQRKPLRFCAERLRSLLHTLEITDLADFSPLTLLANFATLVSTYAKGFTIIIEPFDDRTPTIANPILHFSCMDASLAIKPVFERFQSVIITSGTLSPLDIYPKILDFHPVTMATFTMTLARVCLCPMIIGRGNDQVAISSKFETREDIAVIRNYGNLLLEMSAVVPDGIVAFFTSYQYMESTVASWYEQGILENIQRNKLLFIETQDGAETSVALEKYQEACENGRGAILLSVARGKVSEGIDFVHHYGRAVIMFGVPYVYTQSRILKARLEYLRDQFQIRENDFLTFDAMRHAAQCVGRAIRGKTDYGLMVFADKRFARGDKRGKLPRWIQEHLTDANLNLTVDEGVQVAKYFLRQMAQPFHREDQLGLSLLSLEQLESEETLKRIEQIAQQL
The conditions noted are these: read-out: Kd apparent; k-562, colo 205, sk-n-be(2) and mv-4-11.

Test [2] concerns the target Mitogen-activated protein kinase kinase kinase 20 (Homo sapiens, UniProt Q9NYL2).
The target in test [3] is Platelet-derived growth factor receptor beta (Homo sapiens, UniProt P09619).
Sequence of Platelet-derived growth factor receptor beta (P09619 whole entry): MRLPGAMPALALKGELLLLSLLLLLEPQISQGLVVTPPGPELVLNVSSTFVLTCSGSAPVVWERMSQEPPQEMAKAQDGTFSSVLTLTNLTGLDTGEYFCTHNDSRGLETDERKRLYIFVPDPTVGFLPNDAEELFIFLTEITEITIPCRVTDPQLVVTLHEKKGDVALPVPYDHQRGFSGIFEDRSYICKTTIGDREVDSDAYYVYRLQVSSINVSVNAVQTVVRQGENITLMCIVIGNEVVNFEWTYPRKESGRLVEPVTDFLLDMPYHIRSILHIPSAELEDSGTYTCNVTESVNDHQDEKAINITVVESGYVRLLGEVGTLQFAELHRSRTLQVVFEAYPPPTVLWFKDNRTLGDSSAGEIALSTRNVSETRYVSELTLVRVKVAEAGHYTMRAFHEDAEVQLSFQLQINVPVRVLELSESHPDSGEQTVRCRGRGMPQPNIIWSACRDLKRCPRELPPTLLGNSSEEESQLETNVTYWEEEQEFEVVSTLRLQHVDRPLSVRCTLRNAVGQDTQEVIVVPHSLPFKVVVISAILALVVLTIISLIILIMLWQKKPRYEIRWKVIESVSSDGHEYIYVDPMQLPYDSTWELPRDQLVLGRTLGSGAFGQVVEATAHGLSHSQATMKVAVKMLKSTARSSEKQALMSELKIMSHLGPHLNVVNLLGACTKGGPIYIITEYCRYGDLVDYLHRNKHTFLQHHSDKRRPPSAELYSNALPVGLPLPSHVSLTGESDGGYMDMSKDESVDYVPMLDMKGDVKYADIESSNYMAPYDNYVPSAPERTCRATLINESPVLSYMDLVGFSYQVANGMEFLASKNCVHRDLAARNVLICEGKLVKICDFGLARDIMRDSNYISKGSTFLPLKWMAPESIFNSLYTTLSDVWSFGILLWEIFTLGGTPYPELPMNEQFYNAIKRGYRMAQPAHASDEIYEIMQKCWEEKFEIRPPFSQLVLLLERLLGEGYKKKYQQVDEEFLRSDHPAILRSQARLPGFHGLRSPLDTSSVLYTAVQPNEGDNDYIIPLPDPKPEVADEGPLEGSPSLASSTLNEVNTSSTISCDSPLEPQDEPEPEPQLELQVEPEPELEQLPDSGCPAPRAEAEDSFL
In a further test the target is Ephrin type-A receptor 5 (Homo sapiens, UniProt P54756).
Sequence of Ephrin type-A receptor 5 (P54756 whole entry): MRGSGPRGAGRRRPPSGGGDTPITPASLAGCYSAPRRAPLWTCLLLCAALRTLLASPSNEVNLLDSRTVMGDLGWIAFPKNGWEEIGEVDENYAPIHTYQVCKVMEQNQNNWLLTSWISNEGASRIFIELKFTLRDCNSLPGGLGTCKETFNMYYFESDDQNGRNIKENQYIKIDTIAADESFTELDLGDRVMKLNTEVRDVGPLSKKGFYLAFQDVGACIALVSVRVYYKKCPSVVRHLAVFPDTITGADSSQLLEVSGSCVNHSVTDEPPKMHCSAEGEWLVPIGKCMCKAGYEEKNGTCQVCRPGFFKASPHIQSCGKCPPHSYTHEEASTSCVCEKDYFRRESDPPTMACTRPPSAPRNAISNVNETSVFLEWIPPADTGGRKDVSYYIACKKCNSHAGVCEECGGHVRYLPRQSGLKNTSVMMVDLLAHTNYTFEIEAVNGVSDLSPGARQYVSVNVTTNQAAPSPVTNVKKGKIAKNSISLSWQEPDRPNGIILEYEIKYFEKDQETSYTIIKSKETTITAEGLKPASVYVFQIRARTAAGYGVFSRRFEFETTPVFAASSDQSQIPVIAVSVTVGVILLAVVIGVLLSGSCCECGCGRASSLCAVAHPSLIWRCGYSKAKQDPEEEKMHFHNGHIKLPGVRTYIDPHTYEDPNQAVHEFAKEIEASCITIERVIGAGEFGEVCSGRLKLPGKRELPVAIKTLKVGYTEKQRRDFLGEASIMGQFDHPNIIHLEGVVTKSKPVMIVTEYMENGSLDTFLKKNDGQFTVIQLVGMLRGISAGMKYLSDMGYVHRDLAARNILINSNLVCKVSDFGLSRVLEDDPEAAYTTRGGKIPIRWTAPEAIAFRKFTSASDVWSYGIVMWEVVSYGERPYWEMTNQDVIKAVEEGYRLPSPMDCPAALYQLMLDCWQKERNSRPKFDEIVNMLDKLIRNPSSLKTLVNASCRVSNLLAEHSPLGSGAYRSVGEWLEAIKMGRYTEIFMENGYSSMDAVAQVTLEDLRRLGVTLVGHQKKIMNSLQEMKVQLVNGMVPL
In test [4] the target is Tyrosine-protein kinase CSK (Homo sapiens, UniProt P41240).
Sequence of Tyrosine-protein kinase CSK (P41240 whole entry): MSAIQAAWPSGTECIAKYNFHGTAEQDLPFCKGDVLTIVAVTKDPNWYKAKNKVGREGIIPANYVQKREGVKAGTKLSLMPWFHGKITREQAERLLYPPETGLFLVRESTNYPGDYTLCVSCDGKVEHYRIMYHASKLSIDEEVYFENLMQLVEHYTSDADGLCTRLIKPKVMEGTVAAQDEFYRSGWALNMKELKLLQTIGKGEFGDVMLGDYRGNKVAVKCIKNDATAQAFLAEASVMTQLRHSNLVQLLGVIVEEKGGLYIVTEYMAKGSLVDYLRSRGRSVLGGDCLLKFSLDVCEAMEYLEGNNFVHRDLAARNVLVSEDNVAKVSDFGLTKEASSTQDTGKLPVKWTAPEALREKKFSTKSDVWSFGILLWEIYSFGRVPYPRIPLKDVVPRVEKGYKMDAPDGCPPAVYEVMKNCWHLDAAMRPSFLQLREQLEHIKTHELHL
The target of a further test is T2, ADP/ATP translocase 3 (Homo sapiens, UniProt P12236).
T2 sequence (P12236 whole entry): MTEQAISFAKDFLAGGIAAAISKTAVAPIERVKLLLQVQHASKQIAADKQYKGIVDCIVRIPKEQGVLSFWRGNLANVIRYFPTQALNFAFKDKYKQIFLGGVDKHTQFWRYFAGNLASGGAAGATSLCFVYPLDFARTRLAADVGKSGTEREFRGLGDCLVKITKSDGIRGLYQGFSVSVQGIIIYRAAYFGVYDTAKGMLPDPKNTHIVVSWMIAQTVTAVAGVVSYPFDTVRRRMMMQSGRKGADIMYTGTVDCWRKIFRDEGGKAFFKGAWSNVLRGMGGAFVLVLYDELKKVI

Test [5] has as its target Bone morphogenetic protein receptor type-1A (Homo sapiens, UniProt P36894).
The target of test [6] is T3, Serine/threonine-protein kinase ULK1 (Homo sapiens, UniProt O75385).
T3 sequence (O75385 whole entry): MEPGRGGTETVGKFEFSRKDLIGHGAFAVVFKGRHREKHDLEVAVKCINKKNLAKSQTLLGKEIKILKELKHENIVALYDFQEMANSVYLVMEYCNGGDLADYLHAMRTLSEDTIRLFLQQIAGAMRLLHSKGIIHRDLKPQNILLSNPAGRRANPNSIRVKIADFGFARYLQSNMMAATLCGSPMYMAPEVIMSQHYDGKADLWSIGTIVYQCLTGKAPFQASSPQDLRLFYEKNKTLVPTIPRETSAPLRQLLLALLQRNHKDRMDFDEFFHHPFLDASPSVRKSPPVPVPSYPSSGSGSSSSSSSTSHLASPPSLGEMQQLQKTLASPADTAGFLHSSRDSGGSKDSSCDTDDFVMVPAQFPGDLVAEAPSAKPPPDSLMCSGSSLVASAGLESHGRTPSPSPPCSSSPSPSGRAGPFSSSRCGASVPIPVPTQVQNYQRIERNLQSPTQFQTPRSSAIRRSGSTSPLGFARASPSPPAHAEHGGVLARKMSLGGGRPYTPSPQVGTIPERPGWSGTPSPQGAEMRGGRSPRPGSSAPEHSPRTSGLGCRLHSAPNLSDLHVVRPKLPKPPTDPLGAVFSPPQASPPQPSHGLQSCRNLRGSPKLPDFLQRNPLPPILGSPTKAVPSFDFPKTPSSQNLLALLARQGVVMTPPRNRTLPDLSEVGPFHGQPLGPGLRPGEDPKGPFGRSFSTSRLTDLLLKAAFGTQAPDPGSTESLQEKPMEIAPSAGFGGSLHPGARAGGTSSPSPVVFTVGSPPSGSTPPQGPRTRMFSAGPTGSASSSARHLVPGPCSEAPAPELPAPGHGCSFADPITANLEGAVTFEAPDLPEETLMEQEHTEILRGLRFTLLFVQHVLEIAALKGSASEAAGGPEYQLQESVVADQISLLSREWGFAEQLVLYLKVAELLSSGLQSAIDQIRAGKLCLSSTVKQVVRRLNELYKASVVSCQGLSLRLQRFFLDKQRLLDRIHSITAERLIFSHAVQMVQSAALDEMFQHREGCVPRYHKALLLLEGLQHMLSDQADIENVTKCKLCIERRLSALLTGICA

Where a name gives a salt, the structure may show the parent alone. Calls of active or inactive are those of the source. For most assays here, no stated cut-off is given here; in the data, actives have a measured Kd and inactives only a lower limit.

Sequence of Bone morphogenetic protein receptor type-1A (P36894 whole entry): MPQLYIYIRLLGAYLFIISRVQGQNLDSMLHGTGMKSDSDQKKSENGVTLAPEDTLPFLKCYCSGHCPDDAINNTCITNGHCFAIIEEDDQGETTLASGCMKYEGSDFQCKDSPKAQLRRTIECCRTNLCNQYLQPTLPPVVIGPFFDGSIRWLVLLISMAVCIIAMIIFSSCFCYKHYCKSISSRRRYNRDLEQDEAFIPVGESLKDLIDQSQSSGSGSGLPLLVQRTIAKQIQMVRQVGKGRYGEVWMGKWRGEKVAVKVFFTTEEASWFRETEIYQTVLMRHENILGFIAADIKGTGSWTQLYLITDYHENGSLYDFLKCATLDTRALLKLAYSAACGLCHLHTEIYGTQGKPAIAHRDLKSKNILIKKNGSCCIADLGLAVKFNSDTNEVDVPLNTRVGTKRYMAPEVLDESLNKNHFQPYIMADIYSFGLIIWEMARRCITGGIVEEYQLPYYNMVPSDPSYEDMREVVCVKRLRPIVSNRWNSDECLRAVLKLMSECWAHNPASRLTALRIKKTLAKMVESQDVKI
Sequence of Mitogen-activated protein kinase kinase kinase 20 (Q9NYL2 whole entry): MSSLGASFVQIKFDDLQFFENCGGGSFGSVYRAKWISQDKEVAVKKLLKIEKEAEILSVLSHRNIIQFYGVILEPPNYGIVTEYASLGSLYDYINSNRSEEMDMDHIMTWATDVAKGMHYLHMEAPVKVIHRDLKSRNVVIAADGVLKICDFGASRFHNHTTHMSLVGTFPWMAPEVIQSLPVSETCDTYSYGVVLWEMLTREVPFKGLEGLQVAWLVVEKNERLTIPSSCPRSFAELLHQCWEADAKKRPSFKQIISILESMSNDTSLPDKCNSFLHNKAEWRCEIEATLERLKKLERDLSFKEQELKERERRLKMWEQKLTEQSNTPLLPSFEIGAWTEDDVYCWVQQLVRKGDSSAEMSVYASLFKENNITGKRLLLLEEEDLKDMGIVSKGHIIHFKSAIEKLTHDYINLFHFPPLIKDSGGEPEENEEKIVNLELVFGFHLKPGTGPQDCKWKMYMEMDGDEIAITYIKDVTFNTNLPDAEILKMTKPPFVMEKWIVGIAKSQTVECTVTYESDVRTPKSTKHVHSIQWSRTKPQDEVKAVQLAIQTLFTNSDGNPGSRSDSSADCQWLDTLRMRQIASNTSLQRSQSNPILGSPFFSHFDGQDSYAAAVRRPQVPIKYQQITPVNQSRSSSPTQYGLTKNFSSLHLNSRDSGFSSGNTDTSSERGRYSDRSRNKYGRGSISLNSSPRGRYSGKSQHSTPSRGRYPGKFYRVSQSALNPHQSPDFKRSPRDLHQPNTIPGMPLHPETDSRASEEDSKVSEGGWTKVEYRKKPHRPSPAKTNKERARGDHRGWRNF

In the case of `Cn1cnc2c(F)c(Nc3ccc(Br)cc3F)c(C(=O)NOCCO)cc21` [BINIMETINIB], the Kd (in test [1]; in test [2]; in test [3]; on Ephrin type-A receptor 5; in test [4]; at ADP/ATP translocase 3) was > 30 µM (inactive) each time. For the same molecule, the Kd in test [5] and in test [6] was > 30 µM (inactive) throughout.
As to `CCn1c(C(=O)N(C2CC2)C2CC2)cc2c3c(ncn3C)c(Nc3cc(C)n(C)n3)nc21` [BMS-911543], the Kd (in test [1]; in test [2]; in test [3]; at Ephrin type-A receptor 5; in test [4]; on ADP/ATP translocase 3) was > 30 µM (inactive) each time. The Kd in test [5] and in test [6] was > 30 µM (inactive) in each case.
As to `Cc1cc(Nc2ncc(Cl)c(Nc3ccccc3S(=O)(=O)C(C)C)n2)c(OC(C)C)cc1C1CCNCC1` [CERITINIB], the Kd (in test [1]; in test [2]; in test [3]; on Ephrin type-A receptor 5; in test [4]; on ADP/ATP translocase 3) was > 30 µM (inactive) throughout. For the same molecule, the Kd in test [5] and in test [6] was > 30 µM (inactive) in each case.
For `COCC(=O)NC/C=C/c1ccc2ncnc(Nc3ccc(Oc4ccc(C)nc4)c(C)c3)c2c1` [CP-724714], the Kd (in test [1]; in test [2]; in test [3]; on Ephrin type-A receptor 5; in test [4]; on ADP/ATP translocase 3) was > 30 µM (inactive) each time. Moreover, the Kd in test [5] and in test [6] was > 30 µM (inactive) throughout.
In the case of `C#Cc1cccc(Nc2ncnc3cc(OC)c(OCCCCCCC(=O)NO)cc23)c1` [CUDC-101], the Kd (in test [1]; in test [2]; in test [3]; on Ephrin type-A receptor 5; in test [4]; at ADP/ATP translocase 3) was > 30 µM (inactive) each time. For the same molecule, the Kd in test [5] and in test [6] was > 30 µM (inactive) in each case.
Take `CCS(=O)(=O)N1CCN(c2ccc(Nc3ncc(C(N)=O)c(NC4CC4)n3)cc2)CC1` [Cerdulatinib Hydrochloride]: the Kd in test [1] is > 30 µM (inactive); in test [2], > 30 µM (inactive); in test [3] it was 0.203 µM (active); on Ephrin type-A receptor 5, > 30 µM (inactive); in test [4], > 30 µM (inactive); at ADP/ATP translocase 3, > 30 µM (inactive). Besides, the Kd in test [5] was > 30 µM (inactive); in test [6], 2.82 µM.
For `Cc1nc2cc(-n3ncc(C(=O)c4cc5ccccc5[nH]4)c3N)ccc2[nH]1` [FGFR INHIBITOR DEBIO 1347], the Kd (in test [1]; in test [2]; in test [3]; at Ephrin type-A receptor 5; in test [4]; on ADP/ATP translocase 3) was > 30 µM (inactive) in each case. Also, the Kd in test [5] and in test [6] was > 30 µM (inactive) in each case.
On to `Cc1cccc(-c2nn3c(c2-c2ccnc4ccc(C(N)=O)cc24)CCC3)n1` [GALUNISERTIB], for which the Kd (in test [1]; in test [2]; in test [3]; on Ephrin type-A receptor 5; in test [4]; on ADP/ATP translocase 3) was > 30 µM (inactive) in each case. The Kd in test [5] and in test [6] was > 30 µM (inactive) each time.
For the molecule `COc1ccc(S(=O)(=O)N(C(C)=O)c2ccccc2/C=C/c2cc[n+]([O-])cc2)cc1` [HMN-214], the Kd (in test [1]; in test [2]; in test [3]; on Ephrin type-A receptor 5; in test [4]; at ADP/ATP translocase 3) was > 30 µM (inactive) each time. Also, the Kd in test [5] and in test [6] was > 30 µM (inactive) each time.
For the molecule `O=C(Nc1cc(C(F)(F)F)cc(C(F)(F)F)c1)c1cc(Cl)ccc1O` [IMD-0354], the Kd (in test [1]; in test [2]; in test [3]; on Ephrin type-A receptor 5; in test [4]; at ADP/ATP translocase 3) was > 30 µM (inactive) each time. In addition, the Kd in test [5] and in test [6] was > 30 µM (inactive) each time.
On to `CNC(=O)c1cccc2cc(Oc3ccnc4cc(OCC5(N)CC5)c(OC)cc34)ccc12` [LUCITANIB], for which the Kd was > 30 µM (inactive) in test [1]; > 30 µM (inactive) in test [2]; 0.278 µM in test [3]; > 30 µM (inactive) at Ephrin type-A receptor 5; > 30 µM (inactive) in test [4]; > 30 µM (inactive) at ADP/ATP translocase 3. In addition, the Kd in test [5] and in test [6] was > 30 µM (inactive) throughout.
Take `NC1(c2ccc(-c3nc4ccn5c(=O)[nH]nc5c4cc3-c3ccccc3)cc2)CCC1` [MK-2206]: the Kd (in test [1]; in test [2]; in test [3]; at Ephrin type-A receptor 5; in test [4]; on ADP/ATP translocase 3) was > 30 µM (inactive) each time. Moreover, the Kd in test [5] and in test [6] was > 30 µM (inactive) each time.
For the molecule `CN(C[C@@H]1COCCO1)S(=O)(=O)Nc1ccc2ccc3ncc(-c4cnn(C)c4)cc3c(=O)c2c1` [MK-2461], the Kd is > 30 µM (inactive) in test [1]; > 30 µM (inactive) in test [2]; 0.543 µM in test [3]; > 30 µM (inactive) at Ephrin type-A receptor 5; > 30 µM (inactive) in test [4]; > 30 µM (inactive) on ADP/ATP translocase 3. Also, the Kd in test [5] and in test [6] was > 30 µM (inactive) throughout.
With `Cn1cc(-c2cnc3ccc4ccc(CS(=O)(=O)NCc5ccccn5)cc4c(=O)c3c2)cn1` [MK-8033], the Kd (in test [1]; in test [2]; in test [3]; at Ephrin type-A receptor 5; in test [4]; at ADP/ATP translocase 3) was > 30 µM (inactive) throughout. Moreover, the Kd in test [5] and in test [6] was > 30 µM (inactive) each time.
